Experimental data reported in article PMC8213057, “Targeting ALK2: An Open Science Approach to Developing Therapeutics for the Treatment of Diffuse Intrinsic Pontine Glioma” (Journal of Medicinal Chemistry, 2020).

Experiments:
TBK1 = target: T1, TBK1 (Homo sapiens, UniProt Q9UHD2); conditions: 1 μM; Run 1, Run 2
T1 sequence (Q9UHD2 1-729): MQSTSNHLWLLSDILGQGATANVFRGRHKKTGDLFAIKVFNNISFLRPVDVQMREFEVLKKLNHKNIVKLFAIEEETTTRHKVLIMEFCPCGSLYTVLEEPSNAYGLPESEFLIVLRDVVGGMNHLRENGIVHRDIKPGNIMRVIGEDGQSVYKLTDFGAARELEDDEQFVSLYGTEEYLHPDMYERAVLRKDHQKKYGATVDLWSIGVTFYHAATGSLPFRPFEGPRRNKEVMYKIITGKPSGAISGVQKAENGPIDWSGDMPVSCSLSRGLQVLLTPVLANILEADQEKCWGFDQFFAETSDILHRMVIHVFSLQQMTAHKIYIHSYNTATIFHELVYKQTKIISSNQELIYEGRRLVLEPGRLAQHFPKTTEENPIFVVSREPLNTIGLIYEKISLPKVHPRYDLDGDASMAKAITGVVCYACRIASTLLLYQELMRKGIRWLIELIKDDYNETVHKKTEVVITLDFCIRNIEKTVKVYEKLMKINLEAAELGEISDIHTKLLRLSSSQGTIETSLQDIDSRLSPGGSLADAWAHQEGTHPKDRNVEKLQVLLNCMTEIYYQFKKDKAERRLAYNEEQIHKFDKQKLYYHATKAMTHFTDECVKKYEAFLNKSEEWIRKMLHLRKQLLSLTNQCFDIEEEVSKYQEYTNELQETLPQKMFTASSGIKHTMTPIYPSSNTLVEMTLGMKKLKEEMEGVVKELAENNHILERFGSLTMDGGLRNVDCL

MARK4 = target: T2, MARK4 (Homo sapiens, UniProt Q96L34); assay: biochemical; conditions: read-out: % enzyme activity, 1 μM; Run 1, Run 2
T2 sequence (Q96L34 1-752): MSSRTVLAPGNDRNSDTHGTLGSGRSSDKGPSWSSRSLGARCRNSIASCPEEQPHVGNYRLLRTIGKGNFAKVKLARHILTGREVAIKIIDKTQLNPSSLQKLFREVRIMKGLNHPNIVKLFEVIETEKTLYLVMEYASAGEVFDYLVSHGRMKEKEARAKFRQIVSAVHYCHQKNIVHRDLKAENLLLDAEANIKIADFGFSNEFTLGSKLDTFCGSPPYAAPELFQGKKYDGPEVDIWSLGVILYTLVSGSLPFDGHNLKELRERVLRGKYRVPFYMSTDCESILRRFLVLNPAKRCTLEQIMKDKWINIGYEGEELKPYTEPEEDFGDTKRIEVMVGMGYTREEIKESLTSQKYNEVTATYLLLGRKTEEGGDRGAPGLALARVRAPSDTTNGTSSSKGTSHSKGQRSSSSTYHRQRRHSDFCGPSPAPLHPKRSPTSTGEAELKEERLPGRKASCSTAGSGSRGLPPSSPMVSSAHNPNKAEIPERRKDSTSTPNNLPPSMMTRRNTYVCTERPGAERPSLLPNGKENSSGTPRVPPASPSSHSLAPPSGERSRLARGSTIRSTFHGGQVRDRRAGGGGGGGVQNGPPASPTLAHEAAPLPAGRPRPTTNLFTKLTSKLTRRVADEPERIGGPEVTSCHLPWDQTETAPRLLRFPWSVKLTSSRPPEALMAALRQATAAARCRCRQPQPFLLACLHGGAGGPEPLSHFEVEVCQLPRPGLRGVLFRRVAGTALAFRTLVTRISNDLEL

IRAK4 = target: T3, IRAK4 (Homo sapiens, UniProt Q9NWZ3); assay: biochemical; conditions: read-out: % enzyme activity, 1 μM; Run 1, Run 2
T3 sequence (Q9NWZ3 1-460): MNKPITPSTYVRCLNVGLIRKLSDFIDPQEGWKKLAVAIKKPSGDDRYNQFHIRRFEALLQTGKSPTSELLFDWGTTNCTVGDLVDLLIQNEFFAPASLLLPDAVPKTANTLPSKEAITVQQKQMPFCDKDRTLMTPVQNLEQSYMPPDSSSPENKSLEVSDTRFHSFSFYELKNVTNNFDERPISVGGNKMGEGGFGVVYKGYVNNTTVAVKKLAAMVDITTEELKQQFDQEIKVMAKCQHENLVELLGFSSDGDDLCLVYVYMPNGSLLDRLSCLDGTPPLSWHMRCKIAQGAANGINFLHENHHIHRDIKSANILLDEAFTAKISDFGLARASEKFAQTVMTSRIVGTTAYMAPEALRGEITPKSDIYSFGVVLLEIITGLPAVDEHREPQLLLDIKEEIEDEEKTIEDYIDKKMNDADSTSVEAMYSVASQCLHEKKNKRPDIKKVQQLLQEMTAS

MELK = MELK (Homo sapiens, UniProt Q14680); assay: biochemical; conditions: read-out: % enzyme activity, 1 μM; Run 1, Run 2
MELK, sequence (Q14680 whole entry): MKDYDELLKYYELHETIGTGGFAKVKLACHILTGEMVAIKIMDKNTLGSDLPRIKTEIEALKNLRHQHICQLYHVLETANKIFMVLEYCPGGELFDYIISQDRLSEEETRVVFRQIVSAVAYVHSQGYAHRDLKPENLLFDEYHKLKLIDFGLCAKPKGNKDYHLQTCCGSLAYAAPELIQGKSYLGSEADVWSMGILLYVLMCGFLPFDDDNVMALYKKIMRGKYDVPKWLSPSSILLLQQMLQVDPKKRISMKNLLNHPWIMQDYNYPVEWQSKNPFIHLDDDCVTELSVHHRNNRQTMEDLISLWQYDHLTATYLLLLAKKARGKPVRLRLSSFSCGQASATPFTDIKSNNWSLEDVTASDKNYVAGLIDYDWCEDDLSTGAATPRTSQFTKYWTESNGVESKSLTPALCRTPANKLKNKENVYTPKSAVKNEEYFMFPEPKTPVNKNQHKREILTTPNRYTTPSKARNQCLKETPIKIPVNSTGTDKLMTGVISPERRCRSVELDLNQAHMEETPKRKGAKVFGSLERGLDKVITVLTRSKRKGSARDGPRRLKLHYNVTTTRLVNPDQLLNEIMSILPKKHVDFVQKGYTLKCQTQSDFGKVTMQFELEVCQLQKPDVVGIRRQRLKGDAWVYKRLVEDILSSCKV

DYRK2 = target: T4, DYRK2 (Homo sapiens, UniProt Q92630); conditions: 1 μM; Run 1, Run 2
T4 sequence (Q92630 1-601): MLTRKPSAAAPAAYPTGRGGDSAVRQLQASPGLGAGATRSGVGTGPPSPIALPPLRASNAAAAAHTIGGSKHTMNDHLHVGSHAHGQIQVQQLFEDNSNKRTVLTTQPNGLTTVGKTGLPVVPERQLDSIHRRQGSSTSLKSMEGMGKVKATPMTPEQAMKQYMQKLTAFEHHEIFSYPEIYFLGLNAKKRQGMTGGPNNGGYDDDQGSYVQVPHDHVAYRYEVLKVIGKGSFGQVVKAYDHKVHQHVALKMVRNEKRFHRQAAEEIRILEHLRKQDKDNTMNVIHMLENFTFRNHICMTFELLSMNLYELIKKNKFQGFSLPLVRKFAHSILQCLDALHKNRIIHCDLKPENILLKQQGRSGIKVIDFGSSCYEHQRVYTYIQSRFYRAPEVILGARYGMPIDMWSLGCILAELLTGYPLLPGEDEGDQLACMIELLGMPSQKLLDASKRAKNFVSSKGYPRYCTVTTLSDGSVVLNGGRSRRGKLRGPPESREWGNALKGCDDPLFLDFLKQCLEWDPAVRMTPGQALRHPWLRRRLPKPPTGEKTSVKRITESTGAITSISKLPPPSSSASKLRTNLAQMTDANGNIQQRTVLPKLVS

Row | Compound | % enzyme activity (TBK1) [%] | remaining activity at 1 µM (MARK4) [%] | remaining activity at 1 µM (IRAK4) [%] | remaining activity at 1 µM (MELK) [%] | % enzyme activity (DYRK2) [%]
1 | COc1cc(-c2cncc(-c3ccc(N4CCN(C)CC4)cc3)c2C)cc(F)c1C(N)=O [Compound 26a, 2-Fluoro-6-methoxy-4-(4-methyl-5-(4-(4-methylpiperazin-1-yl)phenyl)pyridin-3-yl)benzamide] | 92.56 | 83.7 | 78.5 | 99.2 | 95.06
2 | COc1cc(-c2cncc(-c3ccc(N4C[C@@H](C)N(C)[C@@H](C)C4)cc3)c2C)cc(F)c1C(N)=O [Compound 26c, 2-Fluoro-6-methoxy-4-(4-methyl-5-(4-((3R,5S)-3,4,5-trimethylpiperazin-1-yl)phenyl)pyridin-3-yl)benzamide] | 85.62 | 96.8 | 84.9 | 99.4 | 98.44
